From publication PMC8845285, “Serotoninergic receptor ligands improve Tamoxifen effectiveness on breast cancer cells” (BMC Cancer, 2022)

Columns and labels:
MCF10A cells = experiment: MCF10A non-cancer breast epithelial cell viability, sulforhodamine B assay; format: cell-based, human; details: 72 h
Method: MCF7 (ER^+, PR^+, HER2^−), SKBR3 (ER^−, PR^+, HER2^+) and MDA-MB231 (ER^−, PR^−, HER2^−) human BC cells and MCF10A non-cancer breast epithelial cells were available in our laboratory. MCF7, SKBR3 and MDA-MB231 cells were cultured in DMEM, supplemented with 10% FBS, 2 mM glutamine, 100 units/ml penicillin and 100 units/ml streptomycin. MCF10A cells were cultured in MEBM, supplemented with 0.4% BPE, 0.1% hEGF, 0.1%, Insulin, 0.1% Hydrocortisone and 0.1% GA-1000. Cultures were maintained in a humidified atmosphere of 95% air and 5% CO2 at 37 °C. Treatment with SER were carried out in culture conditions. […]
Cells were fixed with 50% trichloroacetic acid for at least 2 h at 4 °C, washed with distilled and de-ionized water, air-dryed and stained 30 min with 0.4% sulforhodamine B in 1% acetic acid. […] Cell survival was assessed by optical density determination at 510 nm using a microplate reader.
Fig. 7 Effect of low doses of SER79 and SER68 on MCF7 and MCF10A cells. a Estrogen-starved MCF7 cells (48 h) were treated with Tamoxifen (5 μM) in presence of E2 (100nM) and SER79 (5 μM) or SER68 (20 μM, 5 μM). […] After 72 h, cell viability was assessed by sulforhodamine B assay (see Methods). […] After 72 h, mRNA levels of CTGF were determined by qPCR (see Methods and Table 1). […] After 72 h, cell viability was assessed by sulforhodamine B assay (see Methods). […]

[1] = target: T1, serotonin 5-HT1A receptor (Rattus norvegicus, UniProt P19327); experiment: radioligand binding assay, 5-HT1A, [3H]-8-OH-DPAT; details: rat brain cortex
T1 construct: serotonin 5-HT1A receptor, [^3H]-8-OH-DPAT, rat brain cortex; from tissue; host or cells: rat brain cortex
T1 sequence (P19327 1-422): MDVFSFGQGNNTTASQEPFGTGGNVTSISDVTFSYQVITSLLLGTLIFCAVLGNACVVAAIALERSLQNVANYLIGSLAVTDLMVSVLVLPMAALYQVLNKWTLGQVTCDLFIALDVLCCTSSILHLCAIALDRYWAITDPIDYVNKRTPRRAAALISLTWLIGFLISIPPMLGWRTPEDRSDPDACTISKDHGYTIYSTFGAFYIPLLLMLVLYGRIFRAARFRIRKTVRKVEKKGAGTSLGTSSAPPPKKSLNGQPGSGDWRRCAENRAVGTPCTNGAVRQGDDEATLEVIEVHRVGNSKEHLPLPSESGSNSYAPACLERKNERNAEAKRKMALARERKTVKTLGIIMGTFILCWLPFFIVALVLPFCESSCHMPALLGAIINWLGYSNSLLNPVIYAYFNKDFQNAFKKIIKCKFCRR
Method: (§1) All reactions were monitored by TLC, carried out on Merck 60G F254 plates with fluorescent indicator and the plates were visualized with UV light (254 nm). Each final compound and intermediate was purified by silica gel column chromatography (Macherey-Nagel 60 0,063–0,2 mm/70–230 mesh). […] Unless otherwise stated, all spectra were recorded in CDCl3. Chemical shifts are reported in ppm using Me4Si as internal standard. The following abbreviations are used to describe peak patterns when appropriate: s (singlet), d (doublet), t (triplet), m (multiplet), q (quartet), qt (quintet), dd (double doublet), ddd (double dd), bs (broad singlet). Mass spectra of the final products were performed on LTQ Orbitrap XL™ Fourier transform mass spectrometer (FTMS) equipped with ESI ION MAX™ source (Thermo Fisher, San José, USA). Melting points were determined using a Buchi B-540 hot-stage instrument and are uncorrected. […] All the compounds were dissolved in 5% DMSO. The following specific radioligands and tissue sources were used: (a)serotonin 5-HT1A receptor, [^3H]-8-OH-DPAT, rat brain cortex; (b) serotonin 5-HT2A receptor, [^3H]ketanserin, rat brain cortex; (c)serotonin 5-HT2C receptor, [^3H]mesulergine, rat brain cortex. Non-specific binding was determined as described in the experimental section, and specific binding as the difference between total and non-specific binding. […] The IC50 values obtained were used to calculate apparent inhibition constants (Ki) by the method of Cheng and Prussoff, from the following equation: Ki = IC50/(1 + S/KD) where S represents the concentration of the hot ligand used and KD its receptor dissociation constant (KD values, obtained by Scatchard analysis, were calculated for each labeled ligand). Radioligand binding assays for 5-HT1A were performed following a published procedure. 5-HT2A and 5-HT2C binding assays were performed reported by Herndon et al..

[2] = target: T2, serotonin 5-HT2A receptor (Rattus norvegicus, UniProt P14842); experiment: radioligand binding assay, 5-HT2A, [3H]ketanserin; details: rat brain cortex; for Ki: read-out: Ki ± SD, 5-HT2A [3H]Ketanserin
T2 construct: serotonin 5-HT2A receptor, [^3H]ketanserin, rat brain cortex; from tissue; host or cells: rat brain cortex
T2 sequence (P14842 whole entry): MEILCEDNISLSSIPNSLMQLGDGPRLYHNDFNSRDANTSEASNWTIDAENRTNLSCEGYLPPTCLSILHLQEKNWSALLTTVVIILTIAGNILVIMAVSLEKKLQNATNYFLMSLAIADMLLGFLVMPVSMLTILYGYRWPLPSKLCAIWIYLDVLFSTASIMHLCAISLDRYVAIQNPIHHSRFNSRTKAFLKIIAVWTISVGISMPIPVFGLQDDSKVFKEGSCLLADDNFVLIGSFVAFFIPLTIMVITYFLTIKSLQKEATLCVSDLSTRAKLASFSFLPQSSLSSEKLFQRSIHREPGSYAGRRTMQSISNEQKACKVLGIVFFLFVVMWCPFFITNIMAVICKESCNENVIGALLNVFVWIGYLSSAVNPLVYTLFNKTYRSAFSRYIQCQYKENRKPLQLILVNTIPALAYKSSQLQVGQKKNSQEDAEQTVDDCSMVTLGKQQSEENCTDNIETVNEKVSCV
Method: as §1

Row | Compound | effect on MCF10A cell viability (MCF10A cells; 20 μM) | Ki ± SD, 5-HT1A [3H]8OH-DPAT [1] | Ki [2] [nM] | effect on MCF10A cell viability (MCF10A cells; 5 μM) | Ki ([1]; read-out: Ki ± SD, 5-HT1A [3H]8OH-DPAT) [nM] | Ki ± SD, 5-HT2A [3H]Ketanserin [2]
1 | O=C1C2C3C=CC(C3)C2C(=O)N1OCCN1CCN(c2ccc(Cl)c(Cl)c2)CC1 (centres unmarked) [SER68] | No effect was detected on cell viability | No affinity | 153 ± 70 | – | – | –
2 | N#CN=C(NCCCN1CCN(C(c2ccc(F)cc2)c2ccc(F)cc2)CC1)c1ccccn1 [SER79] | – | no affinity | 504 ± 39.5 | No effect was detected on cell viability | > 10000 | weak
